Results reported in ChEMBL document CHEMBL1833932, “Design, synthesis and SAR of indazole and benzoisoxazole containing 4-azetidinyl-1-aryl-cyclohexanes as CCR2 antagonists” (Bioorg Med Chem Lett, 2011).
In brackets after ≈: the same amount, converted by molar mass.

What was measured:
[1] = biological target: Voltage-gated inwardly rectifying potassium channel KCNH2 (Homo sapiens, UniProt Q12809)
Description: Displacement of [3H]-astemizole from human ERG in HEK293 cells after 1 hrs by scintillation counting

[2] = biological target: C-C chemokine receptor type 2 (Homo sapiens, UniProt P41597); test: Displacement of [125I]-MCP1 from human CCR2 receptor in THP1 cells after 2 hrs by scintillation counting; assay type: cell-based, THP-1
hERG (KCNH2) = hERG (KCNH2) (Homo sapiens, UniProt Q12809); test: in vitro; conditions: HEK293 cells that express hERG
[3] = Efflux ratio of permeability from basolateral to apical side over apical to basolateral side in human Caco2 cell membrane; assay type: ADME, cell-based; conditions: Caco-2
[4] = Kinetic solubility of the compound at pH 2; assay type: physicochemical; conditions: buffer, read-out: Kinetic_solubility
[5] = Apparent permeability of the compound from apical to basolateral side in human Caco2 cell membrane; assay type: ADME, cell-based; conditions: Caco-2
[6] = Apparent permeability of the compound from basolateral to apical side in human Caco2 cell membrane; assay type: ADME, cell-based; conditions: Caco-2

Chain of C-C chemokine receptor type 2 (P41597 whole entry): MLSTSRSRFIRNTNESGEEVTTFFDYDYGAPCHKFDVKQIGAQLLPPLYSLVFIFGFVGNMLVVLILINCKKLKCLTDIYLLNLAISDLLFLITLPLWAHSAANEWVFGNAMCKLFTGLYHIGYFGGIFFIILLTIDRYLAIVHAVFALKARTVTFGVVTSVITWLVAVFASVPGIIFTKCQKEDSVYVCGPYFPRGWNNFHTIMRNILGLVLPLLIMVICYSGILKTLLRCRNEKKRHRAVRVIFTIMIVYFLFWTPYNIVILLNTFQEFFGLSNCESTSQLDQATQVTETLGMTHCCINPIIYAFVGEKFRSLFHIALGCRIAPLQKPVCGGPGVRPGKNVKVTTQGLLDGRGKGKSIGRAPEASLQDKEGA
Chain of Voltage-gated inwardly rectifying potassium channel KCNH2 (Q12809 whole entry): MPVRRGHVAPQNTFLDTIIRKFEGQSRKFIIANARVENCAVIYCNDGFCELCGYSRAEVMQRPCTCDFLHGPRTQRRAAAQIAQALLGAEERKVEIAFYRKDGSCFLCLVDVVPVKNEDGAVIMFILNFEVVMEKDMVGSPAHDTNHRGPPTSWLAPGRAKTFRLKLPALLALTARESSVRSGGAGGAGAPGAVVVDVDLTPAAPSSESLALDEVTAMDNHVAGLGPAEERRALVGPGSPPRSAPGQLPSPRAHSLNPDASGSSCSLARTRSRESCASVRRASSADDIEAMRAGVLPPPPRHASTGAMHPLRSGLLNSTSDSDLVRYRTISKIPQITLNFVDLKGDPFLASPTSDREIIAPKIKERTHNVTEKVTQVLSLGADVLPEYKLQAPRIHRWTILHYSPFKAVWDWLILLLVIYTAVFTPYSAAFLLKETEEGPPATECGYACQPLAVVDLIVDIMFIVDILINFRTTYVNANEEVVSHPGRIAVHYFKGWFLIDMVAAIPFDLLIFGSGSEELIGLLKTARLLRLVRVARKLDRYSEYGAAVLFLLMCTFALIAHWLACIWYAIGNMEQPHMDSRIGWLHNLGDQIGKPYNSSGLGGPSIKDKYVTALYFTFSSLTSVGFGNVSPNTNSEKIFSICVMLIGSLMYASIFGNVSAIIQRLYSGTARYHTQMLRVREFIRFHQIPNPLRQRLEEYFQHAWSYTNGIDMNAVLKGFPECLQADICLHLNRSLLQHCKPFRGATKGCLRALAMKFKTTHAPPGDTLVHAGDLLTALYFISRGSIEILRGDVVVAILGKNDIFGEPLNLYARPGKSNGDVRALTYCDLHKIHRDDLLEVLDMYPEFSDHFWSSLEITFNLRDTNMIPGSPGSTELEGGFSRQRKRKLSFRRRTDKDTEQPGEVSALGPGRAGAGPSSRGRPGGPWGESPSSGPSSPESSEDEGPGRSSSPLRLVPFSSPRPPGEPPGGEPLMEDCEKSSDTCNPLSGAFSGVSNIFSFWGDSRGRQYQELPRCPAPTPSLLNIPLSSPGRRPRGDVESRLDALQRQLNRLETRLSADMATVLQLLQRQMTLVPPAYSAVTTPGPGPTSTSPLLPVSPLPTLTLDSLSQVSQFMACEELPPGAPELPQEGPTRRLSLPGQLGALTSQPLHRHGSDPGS
Chain of hERG (KCNH2) (Q12809 whole entry): as above

IC50 [2]	SMILES	IC50 [1]	other results
510 nM	Cn1nc(NCC(=O)NC2CN([C@H]3CC[C@@H](C(N)=O)CC3)C2)c2cc(C(F)(F)F)ccc21	32000 nM	
> 25000 nM	N[C@H]1CC[C@@H](N2CC(NC(=O)CNc3n[nH]c4ccc(C(F)(F)F)cc34)C2)CC1	> 50000 nM	
510 nM	O=C(COc1n[nH]c2ccc(C(F)(F)F)cc12)NC1CN([C@H]2CC[C@@H](c3ccccc3)CC2)C1		
650 nM	CCOC(=O)[C@H]1CC[C@@H](N2CC(NC(=O)CNc3nn(C4CCCC4)c4ccc(C(F)(F)F)cc34)C2)CC1	4100 nM	
16 nM	COc1ccc([C@]2(O)CC[C@H](N3CC(NC(=O)CNc4n[nH]c5ccc(C(F)(F)F)cc45)C3)CC2)cn1	32000 nM	inhibition at 5 min, 3 µM (hERG (KCNH2)): 30%
55 nM	CC(C)(C)NC(=O)n1nc(NCC(=O)NC2CN([C@H]3CC[C@@H](c4ccc5c(c4)OCO5)CC3)C2)c2cc(C(F)(F)F)ccc21		
	O=C(CNc1n[nH]c2ccc(C(F)(F)F)cc12)NC1CN([C@H]2CC[C@@H](c3ccccc3)CC2)C1 (stereo in doubt; 5)		IC50 ([2]; thp-1): 12 nM
370 nM	CC(C)[C@H]1CC[C@@H](N2CC(NC(=O)CNc3n[nH]c4ccc(C(F)(F)F)cc34)C2)CC1	6200 nM	
63 nM	O=C(CNc1n[nH]c2ccc(C(F)(F)F)cc12)NC1CN([C@H]2CC[C@@H](n3ccccc3=O)CC2)C1		
6 nM	O=C(CNc1n[nH]c2ccc(C(F)(F)F)cc12)NC1CN([C@H]2CC[C@@H](c3ccc4c(c3)OCO4)CC2)C1		
82 nM	NC(=O)n1nc(NCC(=O)NC2CN([C@H]3CC[C@@H](c4ccc5c(c4)OCO5)CC3)C2)c2cc(C(F)(F)F)ccc21	12000 nM	efflux ratio [3]: 16.2; solubility kinetic [4]: 3.5 µM (≈ 1.95 µg/mL); Papp A→B [5]: 0.15 ×10⁻⁶ cm/s; Papp B→A [6]: 2.44 ×10⁻⁶ cm/s
27 nM	CCOC[C@H]1CC[C@@H](N2CC(NC(=O)CNc3nn(C)c4ccc(C(F)(F)F)cc34)C2)CC1	5600 nM	
2600 nM	Cn1nc(NCC(=O)NC2CN([C@H]3CC[C@@H](C(=O)O)CC3)C2)c2cc(C(F)(F)F)ccc21	25000 nM	
56 nM	CCOC(=O)[C@H]1CC[C@@H](N2CC(NC(=O)CNc3nn(C(N)=O)c4ccc(C(F)(F)F)cc34)C2)CC1	20000 nM	efflux ratio [3]: 10.9; solubility kinetic [4]: 8.9 µM (≈ 4.54 µg/mL); Papp A→B [5]: 0.32 ×10⁻⁶ cm/s; Papp B→A [6]: 3.5 ×10⁻⁶ cm/s
27 nM	CCOC(=O)[C@H]1CC[C@@H](N2CC(NC(=O)CNc3n[nH]c4ccc(C(F)(F)F)cc34)C2)CC1	9100 nM	
36 nM	O=C(CNc1noc2ccc(C(F)(F)F)cc12)NC1CN([C@H]2CC[C@@H](c3ccc4c(c3)OCO4)CC2)C1	1900 nM	
13 nM	Cn1nc(NCC(=O)NC2CN([C@H]3CC[C@@H](c4ccc5c(c4)OCO5)CC3)C2)c2cc(C(F)(F)F)ccc21		
6 nM	Cc1ccc([C@H]2CC[C@@H](N3CC(NC(=O)CNc4n[nH]c5ccc(C(F)(F)F)cc45)C3)CC2)cn1	27000 nM	inhibition at 5 min, 3 µM (hERG (KCNH2)): 23%

IC50 [2]	SMILES	IC50 [1]	other results
12 nM	NC(=O)Cc1ccc([C@H]2CC[C@@H](N3CC(NC(=O)CNc4n[nH]c5ccc(C(F)(F)F)cc45)C3)CC2)cc1	9500 nM	
290 nM	O=C(CSc1n[nH]c2ccc(C(F)(F)F)cc12)NC1CN([C@H]2CC[C@@H](c3ccccc3)CC2)C1		
29 nM	O=C(CNc1nn(CCO)c2ccc(C(F)(F)F)cc12)NC1CN([C@H]2CC[C@@H](c3nccs3)CC2)C1		
330 nM	Cn1nc(NCC(=O)NC2CN([C@H]3CC[C@@H](C#N)CC3)C2)c2cc(C(F)(F)F)ccc21		
230 nM	CCOC(=O)[C@H]1CC[C@@H](N2CC(NC(=O)CNc3nn(CC(F)(F)F)c4ccc(C(F)(F)F)cc34)C2)CC1	2500 nM	
29 nM	CCOC(=O)[C@H]1CC[C@@H](N2CC(NC(=O)CNc3noc4ccc(C(F)(F)F)cc34)C2)CC1		
5400 nM	O=C(Cn1[nH]c2ccc(C(F)(F)F)cc2c1=O)NC1CN([C@H]2CC[C@@H](c3ccccc3)CC2)C1		
13 nM	CCOC(=O)[C@H]1CC[C@@H](N2CC(NC(=O)CNc3nn(C)c4ccc(C(F)(F)F)cc34)C2)CC1	8000 nM	
44 nM	Cn1nc(NCC(=O)NC2CN([C@H]3CC[C@@H](CO)CC3)C2)c2cc(C(F)(F)F)ccc21		
2080 nM	CS(=O)(=O)N[C@H]1CC[C@@H](N2CC(NC(=O)CNc3n[nH]c4ccc(C(F)(F)F)cc34)C2)CC1		
22 nM	C=CCn1nc(NCC(=O)NC2CN([C@H]3CC[C@@H](C(=O)OCC)CC3)C2)c2cc(C(F)(F)F)ccc21		
10000 nM	C#C[C@H]1CC[C@@H](N2CC(NC(=O)CNc3nn(C)c4ccc(C(F)(F)F)cc34)C2)CC1	> 50000 nM	
480 nM	Cn1nc(NCC(=O)NC2CN([C@H]3CC[C@@H](c4ncco4)CC3)C2)c2cc(C(F)(F)F)ccc21		
12 nM	O=C(CNc1n[nH]c2ccc(C(F)(F)F)cc12)NC1CN([C@H]2CC[C@@H](c3ccccc3)CC2)C1 (stereo in doubt; 13a)	1200 nM	
120 nM	Cn1nc(NCC(=O)NC2CN([C@H]3CC[C@@H](C4CCCCC4)CC3)C2)c2cc(C(F)(F)F)ccc21		
530 nM	O=C(CNc1n[nH]c2ccc(C(F)(F)F)cc12)NC1CN([C@H]2CC[C@@H](O)CC2)C1	30000 nM	
920 nM	CCOC(=O)[C@H]1CC[C@@H](N2CC(NC(=O)CNc3nn(S(C)(=O)=O)c4ccc(C(F)(F)F)cc34)C2)CC1	25000 nM	
